Laboratory results as given in PubChem BioAssay (NCI).
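Growth conditions: 96-well plates. Treatment: test compound, 48 hours, 5 concentrations. Analysis: linear interpolation between bracketing concentrations; unreached endpoints set to highest concentration. GI50 is the concentration that inhibits growth by half. At the TGI there is no net growth.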

How the values were obtained:
Experiment in all cases: DTP human tumour cell line panel, 48 h
[1] = system: 786-0 renal
[2] = system: A498 renal
[3] = system: A549 NSCLC
[4] = system: ACHN renal
[5] = system: BT-549 breast
[6] = system: CAKI-1 renal
[7] = system: CCRF-CEM leukemia
[8] = system: COLO 205 colon
[9] = system: DU-145 prostate
[10] = system: EKVX NSCLC
[11] = system: HCC-2998 colon
[12] = system: HCT-116 colon
[13] = system: HCT-15 colon
[14] = system: HL-60(TB) leukemia
[15] = system: HOP-62 NSCLC
[16] = system: HOP-92 NSCLC
[17] = system: HS 578T breast
[18] = system: HT29 colon
[19] = system: IGROV1 ovarian
[20] = system: K-562 leukemia
[21] = system: KM12 colon
[22] = system: LOX IMVI melanoma
[23] = system: M14 melanoma
[24] = system: MALME-3M melanoma
[25] = system: MCF7 breast
[26] = system: MDA-MB-231 breast
[27] = system: MDA-MB-435
[28] = system: MOLT-4 leukemia
[29] = system: NCI-H226 lung
[30] = system: NCI-H23 lung
[31] = system: NCI-H460 lung
[32] = system: NCI-H522 lung
[33] = system: NCI/ADR-RES ovarian
[34] = system: OVCAR-3 ovarian
[35] = system: OVCAR-4 ovarian
[36] = system: OVCAR-5 ovarian
[37] = system: OVCAR-8 ovarian
[38] = system: PC-3 prostate
[39] = system: RPMI-8226 leukemia
[40] = system: RXF 393 renal
[41] = system: SF-268 CNS
[42] = system: SF-295 CNS
[43] = system: SF-539 CNS
[44] = system: SK-MEL-2 melanoma
[45] = system: SK-MEL-28 melanoma
[46] = system: SK-MEL-5 melanoma
[47] = system: SK-OV-3 ovarian
[48] = system: SN12C renal
[49] = system: SNB-19 CNS
[50] = system: SNB-75 CNS
[51] = system: SR leukemia
[52] = system: SW-620 colon
[53] = system: T-47D breast
[54] = system: TK-10 renal
[55] = system: U251 CNS
[56] = system: UACC-257 melanoma
[57] = system: UACC-62 melanoma
[58] = system: UO-31 renal
[59] = system: MDA-N

Compound `CN1CCC(=C(c2ccc(Cl)cc2)c2ccccn2)CC1` has a GI50 [1] of over 100 µM, a TGI [1] of over 100 µM and a GI50 [2] of 45.8 µM. It also gave a TGI [2] of over 100 µM, a GI50 [3] of over 100 µM and a TGI [3] of over 100 µM. The GI50 [4] was over 100 µM, the TGI [4] was over 100 µM and the GI50 [5] was 79.8 µM. The TGI [5] was over 100 µM, the GI50 [6] was over 100 µM and the TGI [6] was over 100 µM. The GI50 [7] was 4.37 µM, the TGI [7] was over 100 µM and the GI50 [8] was 31.7 µM. For the same compound, the TGI [8] was over 100 µM, the GI50 [9] was over 100 µM and the TGI [9] was over 100 µM. For the same compound, the GI50 [10] was over 100 µM, the TGI [10] was over 100 µM and the GI50 [11] was over 100 µM. For the same compound, the TGI [11] was over 100 µM, the GI50 [12] was 66.5 µM and the TGI [12] was over 100 µM. For the same compound, the GI50 [13] was over 100 µM, the TGI [13] was over 100 µM and the GI50 [14] was 58.9 µM. The TGI [14] was over 100 µM, the GI50 [15] was over 100 µM and the TGI [15] was over 100 µM. It also gave a GI50 [16] of 16.7 µM, a TGI [16] of over 100 µM and a GI50 [17] of 44.9 µM. For the same compound, the TGI [17] was over 100 µM, the GI50 [18] was 78.8 µM and the TGI [18] was over 100 µM. The GI50 [19] was 78.7 µM, the TGI [19] was over 100 µM and the GI50 [20] was 74.7 µM. For the same compound, the TGI [20] was over 100 µM, the GI50 [21] was over 100 µM and the TGI [21] was over 100 µM. It also gave a GI50 [22] of 56.7 µM, a TGI [22] of over 100 µM and a GI50 [23] of 19.2 µM. The TGI [23] was 38.7 µM, the GI50 [24] was 40.9 µM and the TGI [24] was over 100 µM. The GI50 [25] was over 100 µM, the TGI [25] was over 100 µM and the GI50 [26] was 34.5 µM. The TGI [26] was over 100 µM, the GI50 [27] was 40.7 µM and the TGI [27] was over 100000 nM. For the same compound, the GI50 [28] was over 100 µM, the TGI [28] was over 100 µM and the GI50 [29] was 90.2 µM. It also gave a TGI [29] of over 100 µM, a GI50 [30] of over 100 µM and a TGI [30] of over 100 µM. The GI50 [31] was over 100 µM, the TGI [31] was over 100 µM and the GI50 [32] was 95.5 µM. The TGI [32] was over 100 µM, the GI50 [33] was over 100 µM and the TGI [33] was over 100 µM. It also gave a GI50 [34] of over 100 µM, a TGI [34] of over 100 µM and a GI50 [35] of over 100 µM. For the same compound, the TGI [35] was over 100 µM, the GI50 [36] was over 100 µM and the TGI [36] was over 100 µM. For the same compound, the GI50 [37] was over 100 µM, the TGI [37] was over 100 µM and the GI50 [38] was 80.5 µM. It also gave a TGI [38] of over 100 µM, a GI50 [39] of over 100 µM and a TGI [39] of over 100 µM. For the same compound, the GI50 [40] was 54.5 µM, the TGI [40] was over 100 µM and the GI50 [41] was over 100 µM. It also gave a TGI [41] of over 100 µM, a GI50 [42] of 37.6 µM and a TGI [42] of over 100 µM. For the same compound, the GI50 [43] was 85.1 µM, the TGI [43] was over 100 µM and the GI50 [44] was over 100 µM. The TGI [44] was over 100 µM, the GI50 [45] was 86.1 µM and the TGI [45] was over 100 µM. The GI50 [46] was 50.7 µM, the TGI [46] was over 100 µM and the GI50 [47] was 61.9 µM. For the same compound, the TGI [47] was over 100 µM, the GI50 [48] was over 100 µM and the TGI [48] was over 100 µM. For the same compound, the GI50 [49] was over 100 µM, the TGI [49] was over 100 µM and the GI50 [50] was 31 µM. For the same compound, the TGI [50] was over 100 µM, the GI50 [51] was over 100 µM and the TGI [51] was over 100 µM. The GI50 [52] was over 100 µM, the TGI [52] was over 100 µM and the GI50 [53] was over 100 µM. It also gave a TGI [53] of over 100 µM, a GI50 [54] of over 100 µM and a TGI [54] of over 100 µM. It also gave a GI50 [55] of over 100 µM, a TGI [55] of over 100 µM and a GI50 [56] of 21.5 µM. The TGI [56] was 45.8 µM, the GI50 [57] was 33.3 µM and the TGI [57] was over 100 µM. The GI50 [58] was 18.5 µM and the TGI [58] was over 100 µM.

For `O=C(CCl)N1CCN(c2ccccc2)CC1`, the TGI [1] was 29.3 µM, the TGI [2] was 47.2 µM and the TGI [3] was 43.3 µM. It also gave a TGI [4] of 41.1 µM, a TGI [6] of 29.9 µM and a TGI [7] of over 100 µM. It also gave a TGI [8] of 40 µM, a TGI [9] of over 100 µM and a TGI [10] of 44.2 µM. The TGI [11] was 32.2 µM, the TGI [12] was 35.5 µM and the TGI [13] was 39.2 µM. It also gave a TGI [14] of 41.2 µM, a TGI [15] of 36.3 µM and a TGI [16] of 36.2 µM. For the same compound, the TGI [17] was 76.7 µM, the TGI [18] was 41.4 µM and the TGI [19] was 51.7 µM. It also gave a TGI [20] of over 100 µM, a TGI [21] of 37.2 µM and a TGI [23] of 35.2 µM. For the same compound, the TGI [24] was 42.8 µM, the TGI [25] was 42.4 µM and the TGI [59] was 39.9 µM. It also gave a TGI [28] of over 100 µM, a TGI [30] of 35.6 µM and a TGI [31] of 34.9 µM. It also gave a TGI [33] of over 100 µM, a TGI [35] of 32.9 µM and a TGI [36] of 34.9 µM. The TGI [37] was 97.2 µM, the TGI [38] was 59.4 µM and the TGI [39] was 85.5 µM. The TGI [40] was 35.2 µM, the TGI [41] was 33 µM and the TGI [42] was 36.2 µM. The TGI [45] was 35.7 µM, the TGI [46] was 31.1 µM and the TGI [47] was over 100 µM. It also gave a TGI [49] of over 100 µM, a TGI [50] of 32.5 µM and a TGI [51] of over 100 µM. For the same compound, the TGI [52] was 54.3 µM, the TGI [53] was 45.8 µM and the TGI [54] was 34.8 µM. It also gave a TGI [55] of 34.4 µM, a TGI [56] of 43.6 µM and a TGI [58] of 32 µM.

Work on `NC(N)=N/N=C/c1c(-c2ccc([N+](=O)[O-])cc2)nc2sc(Cl)cn12` yielded a TGI [1] of 0.605 µM, a TGI [2] of 2.77 µM and a TGI [3] of 3.09 µM. The TGI [4] was 2.42 µM, the TGI [6] was 3.76 µM and the TGI [7] was 1.14 µM. The TGI [8] was 2.06 µM, the TGI [10] was 1.53 µM and the TGI [12] was 0.575 µM. For the same compound, the TGI [15] was 3.11 µM, the TGI [16] was 4.05 µM and the TGI [17] was over 100 µM. It also gave a TGI [18] of 3 µM, a TGI [21] of 2.4 µM and a TGI [24] of 3.63 µM. The TGI [27] was 2330 nM, the TGI [59] was 3.12 µM and the TGI [30] was 2.69 µM. The TGI [33] was 3.45 µM, the TGI [35] was 0.954 µM and the TGI [36] was 2.69 µM. It also gave a TGI [38] of 2.04 µM, a TGI [39] of 4 µM and a TGI [40] of 3.8 µM. It also gave a TGI [41] of 3.31 µM, a TGI [43] of 4.01 µM and a TGI [44] of 3.2 µM. The TGI [45] was 3.38 µM, the TGI [46] was 3.6 µM and the TGI [47] was 3.31 µM. It also gave a TGI [48] of 3.05 µM, a TGI [50] of 1.3 µM and a TGI [52] of 1.46 µM. It also gave a TGI [53] of over 100 µM, a TGI [54] of 3.69 µM and a TGI [56] of 1.41 µM. The TGI [57] was 3.01 µM and the TGI [58] was 2.68 µM.
